In patent publication US20240335364A1, “COMPOSITIONS OF DICAFFEOYLQUINIC ACIDS WITH TOCOPHEROL” (SYMRISE AG, priority 2021, published 2024):

Columns and labels:
HSPB2 = assay: Modulation of HSPB2 gene expression of keratinocytes (real-time qPCR, RQ); assay type: cell-based, human; design: key: relative quantity vs DMSO vehicle control (qPCR); settings: nHEK, 24 h, 0.0007%; Example 2
Procedure: (§1) Neonatal human epidermal keratinocytes (nHEK) were cultivated in an EpiLife® medium (Gibco) including an HKGS kit (Gibco) with 5% CO2 at 37° C. in accordance with the supplier's instructions. The cells were treated for 24 hours, with 0.0005% of the different dicaffeoylquinic acids from above dissolved in DMSO and DMSO alone as the vehicle control. Genomic target expression levels in treated cells were measured using a quantitative Real-Time PCR comparison to vehicle control treatment.
(§2) RNA was isolated using Qiagen's RNeasy® Mini Kit. The total RNA concentrations were measured using Eppendorf's μCuvetteG 1.0 and BioPhotometer, by measuring the absorption at 260 nm. Purity control values such as E260/280 and E260/230 were calculated simultaneously. Reverse transcription was performed using the high-capacity RNA-to-cDNA kit of Applied Biosystems, in accordance with the supplier's instructions. Samples were treated in Biometra's PCR Thermocycler. For fast real-time qPCR, the cDNA was diluted with RNase-free water, and the TaqMan™ Fast Universal PCR Master Mix of Applied Biosystems was used. Quantitative real time PCR was performed using the StepOnePlus fast real-time PCR instrument by Applied Biosystems. Analysis was conducted using the StepOne software and […] (normalised to endogenous control […] expression). For upregulations, RQ values ≥2.5 are considered to be relevant.
(§3) Neonatal human epidermal keratinocytes (nHEK) were cultivated as described in Example 1 and treated for 24 hours with 0.0007% of the different monocaffeoylquinic acids. Afterwards fast real-time qPCR was performed as described in above using a customised gene array.
(§4) Neonatal human epidermal keratinocytes (nHEK) were cultivated as described in Example 1 and treated for 24 hours with 4,5-dicaffeoylquinic acid (CAS number 14534-61-3, Phytolab GmbH & Co. KG) and (±)-α-tocopherol (CAS number 10191-41-0, synonym: Synonym: DL-α-Tocopherol, Vitamin E, Sigma-Aldrich, synthetic) alone and in combination. Afterwards fast real-time qPCR was performed as described in above using a customised gene array.
(§5) [formula] • With • A=RQ value by 4,5-dicaffeoylquinic acid at concentration x • B=RQ value by tocopherol at concentration y • C=RQ value by the combination of 4,5-dicaffeoylquinic acid at concentration x/2 and tocopherol at concentration y/2 • D=Factor for 4,5-dicaffeoylquinic acid=>0.5 (due to half concentration tested in the combination) • E=Factor for tocopherol=>0.5 (due to half concentration tested in the combination) • A SI=1 is obtained for additive activity of the two combined components, whereas a SI <1 proves antagonistic activity (observed efficacy is lower than additive) and SI >1 proves synergistic activity (observed efficacy is higher than additive).
(§6) Neonatal human epidermal keratinocytes (nHEK) were cultivated as described above and treated for 24 hours with yarrow extract of example 3 (Achillea millefolium, freeze-dried fresh press juice of flowering aerials, cultivated in Germany) and (±)-α-tocopherol (CAS number 10191-41-0, synonym: Synonym: DL-α-Tocopherol, Vitamin E, Sigma-Aldrich, synthetic) alone and in two combinations. Afterwards fast real-time qPCR was performed as described in above using a customised gene array.

HSPB8 = assay: Modulation of HSPB8 gene expression of keratinocytes (real-time qPCR, RQ); assay type: cell-based, human; design: key: RQ: expression relative to DMSO vehicle control (qPCR); settings: nHEK, 24 h, 0.0007%; Example 2
Procedure: as §1, §2, §3
(§7) Neonatal human epidermal keratinocytes (nHEK) were cultivated as described in Example 1 and treated for 24 hours with 0.005% of the extract samples. Afterwards fast real-time qPCR was performed as described in above using a customized gene array.
as §4, §5, §6

DSG1 = assay: Modulation of DSG1 gene expression of keratinocytes (real-time qPCR, RQ); assay type: cell-based, human; design: key: relative quantity vs DMSO vehicle control (qPCR); settings: nHEK, 24 h
Procedure: as §1, §2, §3, §7, §4, §5
(§8) Neonatal human epidermal keratinocytes (nHEK) were cultivated as described in Example 1 and treated for 24 hours with 3,4-dicaffeoylquinic acid (CAS number 57378-72-0, Phytolab GmbH & Co. KG) and (+)-α-tocopherol (CAS number 59-02-9, synonym: Synonym: D-α-tocopherol, Vitamin E, Sigma-Aldrich) alone and in combination. Afterwards fast real-time qPCR was performed as described in above using a customised gene array. For upregulations, RQ values ≥2.5 are considered to be relevant.
Neonatal human epidermal keratinocytes (nHEK) were cultivated as described above and treated for 24 hours with 3,5-dicaffeoylquinic acid (CAS number 2450-53-5, Phytolab GmbH & Co. KG) and D-α-tocopherol (CAS number 59-02-9, synonym: (+)-α-tocopherol, Vitamin E, trade name: Copherol® F 1300 C, BTC Europe GmbH) alone and in combination. Afterwards fast real-time qPCR was performed as described in above using a customised gene array. […]

DEFB1 = assay: Modulation of DEFB1 gene expression of keratinocytes (real-time qPCR, RQ); assay type: cell-based, human; design: key: RQ = expression relative to DMSO vehicle control (qPCR); settings: nHEK, 24 h
Procedure: as §1, §2, §3, §4, §5, §6
Neonatal human epidermal keratinocytes (nHEK) were cultivated as described above and treated for 24 hours with yarrow extract of example 3 (Achillea millefolium, freeze-dried fresh press juice of flowering aerials, cultivated in Germany) and (+)-α-tocopherol (CAS number 59-02-9, synonym: Synonym: D-α-tocopherol, Vitamin E, Sigma-Aldrich) alone and in combination. Afterwards fast real-time qPCR was performed as described in above using a customised gene array.

CLDN1 = assay: Modulation of CLDN1 gene expression of keratinocytes (real-time qPCR, RQ); assay type: cell-based, human; settings: nHEK, 24 h
Procedure: as §1, §2, §3, §7, §4, §5, §8, §6

DSC1 = assay: Modulation of DSC1 gene expression of keratinocytes (real-time qPCR, RQ); assay type: cell-based, human; design: key: RQ: expression relative to DMSO vehicle control; settings: nHEK, 24 h
Procedure: as §1, §2, §3, §7, §4, §5, §8
(§9) Neonatal human epidermal keratinocytes (nHEK) were cultivated as described above and treated for 24 hours with yarrow extract of example 3 (Achillea millefolium, freeze-dried fresh press juice of flowering aerials, cultivated in Germany) and (±)-α-tocopherol (CAS number 10191-41-0, synonym: Synonym: DL-α-Tocopherol, Vitamin E, Sigma-Aldrich, synthetic) alone and in two combinations. Afterwards fast real-time qPCR was performed as described in above using a customised gene array. […]

CRYAB = assay: Modulation of CRYAB gene expression of keratinocytes (real-time qPCR, RQ); assay type: cell-based, human; design: key: relative quantity (RQ) vs DMSO vehicle-treated control; settings: nHEK, 24 h
Procedure: as §1, §2, §3, §7, §4, §5
Neonatal human epidermal keratinocytes (nHEK) were cultivated as described above and treated for 24 hours with 3,5-dicaffeoylquinic acid (CAS number 2450-53-5, Phytolab GmbH & Co. KG) and D-α-tocopherol (CAS number 59-02-9, synonym: (+)-α-tocopherol, Vitamin E, trade name: Copherol® F 1300 C, BTC Europe GmbH) alone and in combination. Afterwards fast real-time qPCR was performed as described in above using a customised gene array.
as §9

OCLN = assay: Modulation of OCLN gene expression of keratinocytes (real-time qPCR, RQ); assay type: cell-based, human; design: key: RQ: expression relative to DMSO vehicle control (qPCR); settings: nHEK, 24 h, 0.0007%; Example 2
Procedure: as §1, §2, §3, §7, §4, §5, §6

[1] = tested on: Neonatal human epidermal keratinocytes (nHEK); assay: Modulation of gene expression of keratinocytes, whole gene array (statements in words); assay type: cell-based; settings: 24 h
Procedure: as §1, §2, §3, §7

[2] = 0.003% tocopherol alone, Example 8

SMILES	RQ value HSPB2 (HSPB2)	RQ value HSPB8 (HSPB8)	RQ value DSG1 (DSG1; 0.0007%, Example 2)	RQ value DEFB1 (DEFB1; 0.0007%, Example 2)	RQ value CLDN1 (CLDN1; 0.0007%, Example 2)	RQ value DSC1 (DSC1; 0.0007%, Example 2)	RQ value CRYAB (CRYAB; 0.0007%, Example 2)	RQ value OCLN (OCLN)	RQ value DSG1 (DSG1; 0.003% alone, Example 5)	RQ value DSG1 (DSG1; [2])	RQ value DSG1 (DSG1; 0.01% alone, Example 6)	RQ value DEFB1 (DEFB1; [2])	RQ value CLDN1 (CLDN1; 0.003% alone, Example 5)	RQ value DSC1 (DSC1; 0.003% alone, Example 5)	RQ value DSC1 (DSC1; [2])	RQ value CRYAB (CRYAB; [2])	RQ value CRYAB (CRYAB; 0.01% alone, Example 6)	relevant modulation of the selected genes (RQ ≥2.5) ([1]; tocopherol alone at 0.003%)	relevant modulation of the selected genes (RQ ≥2.5) ([1]; tocopherol alone at 0.01%)
O=C(/C=C/c1ccc(O)c(O)c1)O[C@H]1[C@H](O)C[C@](O)(C(=O)O)C[C@H]1O [4-caffeoyl-quinic acid, 4-caffeoylquinic acid]	2.2	1.0	1.9	1.9	0.8	2.2	1.9	1.0											
O=C(/C=C/c1ccc(O)c(O)c1)O[C@@H]1C[C@](O)(C(=O)O)C[C@@H](O)[C@H]1O [3-caffeoyl-quinic acid, 3-Caffeoylquinic acid]	0.8	0.8	0.7	1.1	0.8	1.0	0.9	1.0											
Cc1c(C)c2c(c(C)c1O)CC[C@@](C)(CCC[C@H](C)CCC[C@H](C)CCCC(C)C)O2 [(+)-alpha-tocopherol, (+)-α-tocopherol]									0.4	0.4	0.7	0.8	0.4	0.6	0.6	0.7	0.5	does not relevantly modulate any of the selected genes	does not relevantly modulate any of the selected genes
O=C(/C=C/c1ccc(O)c(O)c1)O[C@@H]1C[C@@](O)(C(=O)O)C[C@@H](O)[C@@H]1O [5-caffeoyl-quinic acid, 5-caffeoylquinic acid]	1.0	0.6	0.5	0.7	0.8	0.7	0.7	0.8											
